Legend:
Test in all cases: relative viability (nuclei count vs DMSO), 5 days (fraction); higher = more cells survive
A549 = system: A549
Method in brief: (§1)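 Five library-drug doses in √10 steps were combined with a fixed anchor-drug dose, or a single drug was given alone, by pin tool to lung cancer cell lines in 1536-well plates the day after seeding. Nuclei were stained and counted after 5 days. Relative viability is the nuclei count in treated wells over that in vehicle wells, taken as the median of duplicate plates.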

Calu-6 = system: Calu-6
Method in brief: as §1

EBC-1 = system: EBC-1
Method in brief: as §1

EMC-BAC-2 = system: EMC-BAC-2
Method in brief: as §1

HCC-366 = system: HCC-366
Method in brief: as §1

HCC-78 = system: HCC-78
Method in brief: as §1

IA-LM = system: IA-LM
Method in brief: as §1

LCLC-97TM1 = system: LCLC-97TM1
Method in brief: as §1

NCI-H1299 = system: NCI-H1299
Method in brief: as §1

NCI-H1395 = system: NCI-H1395
Method in brief: as §1

NCI-H1703 = system: NCI-H1703
Method in brief: as §1

Cc1csc(=NC2CCCCC2)n1/N=C/c1ccc(O)c(O)c1O [MIM1] + CS(=O)(=O)CCNCc1ccc(-c2ccc3ncnc(Nc4ccc(OCc5cccc(F)c5)c(Cl)c4)c3c2)o1 [Lapatinib] (partner 2 µM)
relative viability (A549; first compound 0.2 µM): 0.997 | relative viability (A549; first compound 0.6325 µM): 0.941 | relative viability (A549; first compound 2 µM): 1.03 | relative viability (A549; first compound 6.325 µM): 0.595 | relative viability (A549; first compound 20 µM): 0.222 | relative viability (Calu-6; first compound 0.2 µM): 1.08 | relative viability (Calu-6; first compound 0.6325 µM): 0.985 | relative viability (Calu-6; first compound 2 µM): 1.06 | relative viability (Calu-6; first compound 6.325 µM): 0.509 | relative viability (Calu-6; first compound 20 µM): 0.289 | relative viability (EBC-1; first compound 0.2 µM): 0.199 | relative viability (EBC-1; first compound 0.6325 µM): 0.279 | relative viability (EBC-1; first compound 2 µM): 0.212 | relative viability (EBC-1; first compound 6.325 µM): 0.209 | relative viability (EBC-1; first compound 20 µM): 0.205 | relative viability (EMC-BAC-2; first compound 0.2 µM): 0.861 | relative viability (EMC-BAC-2; first compound 0.6325 µM): 0.713 | relative viability (EMC-BAC-2; first compound 2 µM): 0.869 | relative viability (EMC-BAC-2; first compound 6.325 µM): 0.828 | relative viability (EMC-BAC-2; first compound 20 µM): 0.212 | relative viability (HCC-366; first compound 0.2 µM): 1.01 | relative viability (HCC-366; first compound 0.6325 µM): 0.905 | relative viability (HCC-366; first compound 2 µM): 0.741 | relative viability (HCC-366; first compound 6.325 µM): 0.548 | relative viability (HCC-366; first compound 20 µM): 0.0188 | relative viability (HCC-78; first compound 0.2 µM): 0.834 | relative viability (HCC-78; first compound 0.6325 µM): 0.964 | relative viability (HCC-78; first compound 2 µM): 0.637 | relative viability (HCC-78; first compound 6.325 µM): 0.492 | relative viability (HCC-78; first compound 20 µM): 0.336 | relative viability (IA-LM; first compound 0.2 µM): 0.66 | relative viability (IA-LM; first compound 0.6325 µM): 0.869 | relative viability (IA-LM; first compound 2 µM): 0.716 | relative viability (IA-LM; first compound 6.325 µM): 0.375 | relative viability (IA-LM; first compound 20 µM): 0.151 | relative viability (LCLC-97TM1; first compound 0.2 µM): 1.04 | relative viability (LCLC-97TM1; first compound 0.6325 µM): 0.526 | relative viability (LCLC-97TM1; first compound 2 µM): 0.539 | relative viability (LCLC-97TM1; first compound 6.325 µM): 0.353 | relative viability (LCLC-97TM1; first compound 20 µM): 0.128 | relative viability (NCI-H1299; first compound 0.2 µM): 0.978 | relative viability (NCI-H1299; first compound 0.6325 µM): 0.954 | relative viability (NCI-H1299; first compound 2 µM): 1 | relative viability (NCI-H1299; first compound 6.325 µM): 0.924 | relative viability (NCI-H1299; first compound 20 µM): 0.948 | relative viability (NCI-H1395; first compound 0.2 µM): 1.14 | relative viability (NCI-H1395; first compound 0.6325 µM): 1.1 | relative viability (NCI-H1395; first compound 2 µM): 0.862 | relative viability (NCI-H1395; first compound 6.325 µM): 0.711 | relative viability (NCI-H1395; first compound 20 µM): 0.515 | relative viability (NCI-H1703; first compound 0.2 µM): 1.02 | relative viability (NCI-H1703; first compound 0.6325 µM): 1.23 | relative viability (NCI-H1703; first compound 2 µM): 0.906 | relative viability (NCI-H1703; first compound 6.325 µM): 0.166 | relative viability (NCI-H1703; first compound 20 µM): 0.202

Cc1csc(=NC2CCCCC2)n1/N=C/c1ccc(O)c(O)c1O [MIM1] + CS(=O)(=O)N1CCN(Cc2cc3nc(-c4cccc5[nH]ncc45)nc(N4CCOCC4)c3s2)CC1 [Pictilisib] (partner 1 µM)
relative viability (A549; first compound 0.2 µM): 0.508 | relative viability (A549; first compound 0.6325 µM): 0.565 | relative viability (A549; first compound 2 µM): 0.636 | relative viability (A549; first compound 6.325 µM): 0.15 | relative viability (A549; first compound 20 µM): 0.0858 | relative viability (Calu-6; first compound 0.2 µM): 0.909 | relative viability (Calu-6; first compound 0.6325 µM): 0.892 | relative viability (Calu-6; first compound 2 µM): 0.942 | relative viability (Calu-6; first compound 6.325 µM): 0.499 | relative viability (Calu-6; first compound 20 µM): 0.196 | relative viability (EBC-1; first compound 0.2 µM): 0.352 | relative viability (EBC-1; first compound 0.6325 µM): 0.384 | relative viability (EBC-1; first compound 2 µM): 0.355 | relative viability (EBC-1; first compound 6.325 µM): 0.253 | relative viability (EBC-1; first compound 20 µM): 0.191 | relative viability (EMC-BAC-2; first compound 0.2 µM): 0.538 | relative viability (EMC-BAC-2; first compound 0.6325 µM): 0.479 | relative viability (EMC-BAC-2; first compound 2 µM): 0.542 | relative viability (EMC-BAC-2; first compound 6.325 µM): 0.562 | relative viability (EMC-BAC-2; first compound 20 µM): 0.238 | relative viability (HCC-366; first compound 0.2 µM): 0.166 | relative viability (HCC-366; first compound 0.6325 µM): 0.153 | relative viability (HCC-366; first compound 2 µM): 0.122 | relative viability (HCC-366; first compound 6.325 µM): 0.183 | relative viability (HCC-366; first compound 20 µM): 0.0561 | relative viability (HCC-78; first compound 0.2 µM): 0.251 | relative viability (HCC-78; first compound 0.6325 µM): 0.23 | relative viability (HCC-78; first compound 2 µM): 0.228 | relative viability (HCC-78; first compound 6.325 µM): 0.34 | relative viability (HCC-78; first compound 20 µM): 0.185 | relative viability (IA-LM; first compound 0.2 µM): 0.36 | relative viability (IA-LM; first compound 0.6325 µM): 0.328 | relative viability (IA-LM; first compound 2 µM): 0.261 | relative viability (IA-LM; first compound 6.325 µM): 0.18 | relative viability (IA-LM; first compound 20 µM): 0.0832 | relative viability (LCLC-97TM1; first compound 0.2 µM): 0.22 | relative viability (LCLC-97TM1; first compound 0.6325 µM): 0.178 | relative viability (LCLC-97TM1; first compound 2 µM): 0.228 | relative viability (LCLC-97TM1; first compound 6.325 µM): 0.18 | relative viability (LCLC-97TM1; first compound 20 µM): 0.108 | relative viability (NCI-H1299; first compound 0.2 µM): 0.726 | relative viability (NCI-H1299; first compound 0.6325 µM): 0.791 | relative viability (NCI-H1299; first compound 2 µM): 0.765 | relative viability (NCI-H1299; first compound 6.325 µM): 0.535 | relative viability (NCI-H1299; first compound 20 µM): 0.354 | relative viability (NCI-H1395; first compound 0.2 µM): 0.666 | relative viability (NCI-H1395; first compound 0.6325 µM): 0.61 | relative viability (NCI-H1395; first compound 2 µM): 0.509 | relative viability (NCI-H1395; first compound 6.325 µM): 0.377 | relative viability (NCI-H1395; first compound 20 µM): 0.365 | relative viability (NCI-H1703; first compound 0.2 µM): 0.219 | relative viability (NCI-H1703; first compound 0.6325 µM): 0.304 | relative viability (NCI-H1703; first compound 2 µM): 0.286 | relative viability (NCI-H1703; first compound 6.325 µM): 0.177 | relative viability (NCI-H1703; first compound 20 µM): 0.182
